Reference: patent publication US20100137305A1, “AMINOPYRIMIDINES USEFUL AS KINASE INHIBITORS” (VERTEX PHARMACEUTICALS INCORPORATED, priority 2008, published 2010)
Read-outs that look alike come from different tables or passages of the source.

Assays:
Colo205 cells = test: Analysis of Cell Proliferation, 3H thymidine incorporation; assay type: cell-based; settings: Homo sapiens
Experimental: Compounds were screened for their ability to inhibit cell proliferation using Colo205 cells obtained from ECACC and using the assay shown below.
Colo205 cells were seeded in 96 well plates and serially diluted compound was added to the wells in duplicate. Control groups included untreated cells, the compound diluent (0.1% DMSO alone) and culture medium without cells. The cells were then incubated for 72 or 96 hrs at 37C in an atmosphere of 5% CO2/95% humidity.
To measure proliferation, 3 h prior to the end of the experiment 0.5 μCi of 3H thymidine was added to each well. Cells were then harvested and the incorporated radioactivity counted on a Wallac microplate beta-counter. Dose response curves were calculated using either Prism 3.0 (GraphPad) or SoftMax Pro 4.3.1 LS (Molecular Devices) software.

Aurora-2 (Aurora A) = target: T1, Aurora-2 (Aurora A) (Homo sapiens, UniProt O14965); test: Aurora-2 (Aurora A) Inhibition Assay, coupled enzyme assay; assay type: biochemical; settings: 400 μM ATP, 30° C.; read-out: Aurora A kinase activity Ki
T1 sequence (O14965 1-403): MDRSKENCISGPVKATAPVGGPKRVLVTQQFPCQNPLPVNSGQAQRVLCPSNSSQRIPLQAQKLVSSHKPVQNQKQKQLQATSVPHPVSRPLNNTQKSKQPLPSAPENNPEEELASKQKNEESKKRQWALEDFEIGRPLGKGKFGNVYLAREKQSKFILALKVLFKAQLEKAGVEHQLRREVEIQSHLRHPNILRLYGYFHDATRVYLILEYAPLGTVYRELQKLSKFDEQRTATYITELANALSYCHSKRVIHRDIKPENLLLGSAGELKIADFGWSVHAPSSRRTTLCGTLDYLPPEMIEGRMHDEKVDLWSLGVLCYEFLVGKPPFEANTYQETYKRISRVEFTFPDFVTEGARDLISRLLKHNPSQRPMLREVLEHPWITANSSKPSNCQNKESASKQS
Experimental: Compounds were screened for their ability to inhibit Aurora-2 using a standard coupled enzyme assay (Fox et al., Protein Sci., (1998) 7, 2249). Assays were carried out in a mixture of 100 mM Hepes (pH7.5), 10 mM MgCl2, 1 mM DTT, 25 mM NaCl, 2.5 mM phosphoenolpyruvate, 300 μM NADH, 30 μg/ml pyruvate kinase and 10 μg/ml lactate dehydrogenase. Final substrate concentrations in the assay were 400 μM ATP (Sigma Chemicals) and 570 μM peptide (Kemptide, American Peptide, Sunnyvale, Calif.). Assays were carried out at 30° C. and in the presence of 40 nM Aurora-2.
An assay stock buffer solution was prepared containing all of the reagents listed above, with the exception of Aurora-2 and the test compound of interest. 55 μl of the stock solution was placed in a 96 well plate followed by addition of 2 μl of DMSO stock containing serial dilutions of the test compound (typically starting from a final concentration of 7.5 μM). The plate was preincubated for 10 minutes at 30° C. and the reaction initiated by addition of 10 μl of Aurora-2. Initial reaction rates were determined with a Molecular Devices SpectraMax Plus plate reader over a 10 minute time course. IC50 and Ki data were calculated from non-linear regression analysis using the Prism software package (GraphPad Prism version 3.0cx for Macintosh, GraphPad Software, San Diego Calif., USA).

Aurora-1 (Aurora B) = Aurora-1 (Aurora B) (Homo sapiens, UniProt Q96GD4); test: Aurora-1 (Aurora B) Inhibition Assay (radiometric); assay type: biochemical; settings: 800 μM ATP; read-out: Aurora B kinase activity Ki
Experimental: An assay buffer solution was prepared which consisted of 25 mM HEPES (pH 7.5), 10 mM MgCl2, 0.1% BSA and 10% glycerol. A 22 nM Aurora-B solution, also containing 1.7 mM DTT and 1.5 mM Kemptide (LRRASLG), was prepared in assay buffer. To 22 μL of the Aurora-B solution, in a 96-well plate, was added 2 μl of a compound stock solution in DMSO and the mixture allowed to equilibrate for 10 minutes at 25° C. The enzyme reaction was initiated by the addition of 16 μl stock [γ-^33P]-ATP Pi-ATP solution (˜20 nCi/μL) prepared in assay buffer, to a final assay concentration of 800 μM. The reaction was stopped after 3 hours by the addition of 16 μL 500 mM phosphoric acid and the levels of ^33P incorporation into the peptide substrate were determined by the following method.
A phosphocellulose 96-well plate (Millipore, Cat no. MAPHNOB50) was pre-treated with 100 μL of a 100 mM phosphoric acid prior to the addition of the enzyme reaction mixture (40 μL). The solution was left to soak on to the phosphocellulose membrane for 30 minutes and the plate subsequently washed four times with 200 μL of a 100 mM phosphoric acid. To each well of the dry plate was added 30 μL of Optiphase ‘SuperMix’ liquid scintillation cocktail (Perkin Elmer) prior to scintillation counting (1450 Microbeta Liquid Scintillation Counter, Wallac). Levels of non-enzyme catalyzed background radioactivity were determined by adding 16 μL of the 500 mM phosphoric acid to control wells, containing all assay components (which acts to denature the enzyme), prior to the addition of the [γ-^33P]-ATP solution. Levels of enzyme catalyzed ^33P incorporation were calculated by subtracting mean background counts from those measured at each inhibitor concentration. For each Ki determination 8 data points, typically covering the concentration range 0-10 μM compound, were obtained in duplicate (DMSO stocks were prepared from an initial compound stock of 10 mM with subsequent 1:2.5 serial dilutions). Ki values were calculated from initial rate data by non-linear regression using the Prism software package (Prism 3.0, Graphpad Software, San Diego, Calif.).

[1] = COLO 205, 72 h, 72 hours, read-out: IC50 cell proliferation after 72 hours
[2] = COLO 205, 96 h, 96 hours, read-out: IC50 cell proliferation after 96 hours

Aurora-1 (Aurora B), sequence (Q96GD4 whole entry): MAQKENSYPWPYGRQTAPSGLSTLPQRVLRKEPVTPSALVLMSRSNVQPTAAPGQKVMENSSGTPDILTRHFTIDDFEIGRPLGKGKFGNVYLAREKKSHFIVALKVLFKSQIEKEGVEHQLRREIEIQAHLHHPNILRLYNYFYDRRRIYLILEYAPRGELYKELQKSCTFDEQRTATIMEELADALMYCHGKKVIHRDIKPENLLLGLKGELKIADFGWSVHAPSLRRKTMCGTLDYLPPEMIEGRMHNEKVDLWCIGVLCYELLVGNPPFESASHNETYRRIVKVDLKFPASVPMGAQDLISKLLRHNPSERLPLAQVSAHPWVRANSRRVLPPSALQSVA

Row | SMILES | IC50 (Colo205 cells; [1]) [nM] | Ki (Aurora-2 (Aurora A)) [nM] | Ki (Aurora-1 (Aurora B)) [nM] | IC50 (Colo205 cells; [2]) [nM]
1 | Cc1cc(Nc2cc(N3CCC4(CC3)OCCO4)nc(Sc3ccc(NC(=O)CC(F)(F)F)cc3)n2)[nH]n1 [Compound I-79] | 25 to 125 | ≤ 10 | ≤ 10 | 
2 | Cc1cnc(Nc2cc(N3CCC[C@H](N(C)C)C3)nc(Sc3ccc(NC(=O)C4CC4)cc3)n2)s1 [Compound I-8] |  | 10 to 50 |  | 50 to 200
3 | CN[C@H]1CCCN(c2cc(Nc3ncc(C)s3)nc(Sc3ccc(NC(=O)C4CC4)cc3)n2)C1 [Compound I-25] |  | ≤ 10 |  | 50 to 200
4 | CCC(=O)Nc1ccc(Sc2nc(Nc3cc(C)n[nH]3)cc(N3CC[C@@H](NC(C)C)C3)n2)cc1 [Compound I-1] |  | 10 to 50 |  | 
5 | Cc1cc(Nc2cc(N3CC[C@@H](F)C3)nc(Sc3ccc(NC(=O)c4ccccc4C(F)(F)F)cc3)n2)[nH]n1 [Compound I-74] | ≤ 25 | ≤ 10 | ≤ 10 | 
6 | CCC(=O)Nc1ccc(Sc2nc(Nc3cc(C)n[nH]3)cc(N3CCC(C)(O)CC3)n2)cc1 [Compound I-21] |  | ≤ 10 | 10 to 50 | 50 to 200
7 | CN1CCC2(CCN(c3cc(Nc4cc(C5CC5)n[nH]4)nc(Sc4ccc(NC(=O)C5CC5)cc4)n3)CC2)C1 [Compound I-51] |  | ≤ 10 | 10 to 50 | ≤ 50
8 | CN[C@@H]1CCN(c2cc(Nc3ncc(C)s3)nc(Sc3ccc(NC(=O)C4CC4)cc3)n2)C1 [Compound I-36] |  | ≤ 10 |  | ≤ 50
9 | Cc1cc(Nc2cc(N3CCC(N4CCN(C)CC4)CC3)nc(Sc3ccc(NC(=O)CC(F)(F)F)cc3)n2)[nH]n1 [Compound I-73] | ≤ 25 | ≤ 10 | 10 to 50 | 
10 | CCC(=O)Nc1ccc(Sc2nc(Nc3cc(C)[nH]n3)cc(N3CCC4(CC3)OCCO4)n2)cc1 [Compound I-15] |  | ≤ 10 | 10 to 50 | 50 to 200
11 | Cc1cc(Nc2cc(N3CCC4(CC3)CCN(C(C)C)C4)nc(Sc3ccc(NC(=O)C4CC4)cc3)n2)[nH]n1 [Compound I-31] |  | ≤ 10 | 10 to 50 | 50 to 200
12 | Cc1cc(Nc2cc(N3CCC(N4CCOCC4)CC3)nc(Sc3ccc(NC(=O)C4(C(F)(F)F)CC4)cc3)n2)[nH]n1 [Compound I-67] | ≤ 25 | ≤ 10 | ≤ 10 | 
13 | Cc1cc(Nc2cc(N3CCC(N4CCCC4)CC3)nc(Sc3ccc(NC(=O)CC4CC4)cc3)n2)n[nH]1 [Compound I-83] | 25 to 125 | ≤ 10 |  | 
14 | Cc1cc(Nc2cc(N3CC[C@H](N(C)C)C3)nc(Sc3ccc(NC(=O)c4ccccc4C(F)(F)F)cc3)n2)[nH]n1 [Compound I-70] | ≤ 25 | ≤ 10 | ≤ 10 | 
15 | Cc1cc(Nc2cc(N3CCC(F)(F)CC3)nc(Sc3ccc(NC(=O)CC(F)(F)F)cc3)n2)[nH]n1 [Compound I-84] | 25 to 125 | ≤ 10 | 10 to 50 | 
16 | CCC(=O)Nc1ccc(Sc2nc(Nc3cc(C)[nH]n3)cc(N3CC[C@H](NC(C)C)C3)n2)cc1 [Compound I-28] |  | 10 to 50 |  | 50 to 200
17 | CCC(=O)Nc1ccc(Sc2nc(Nc3cc(C4CC4)n[nH]3)cc(N3CC[C@H](N4CCCC4)C3)n2)cc1 [Compound I-62] |  | ≤ 10 | 10 to 50 | ≤ 50
18 | CCC(=O)Nc1ccc(Sc2nc(Nc3cc(C)n[nH]3)cc(N3CC4CCCNC4C3)n2)cc1 (centres unmarked) [Compound I-19] |  | ≤ 10 |  | 50 to 200

Row | SMILES | IC50 (Colo205 cells; [1]) [nM] | Ki (Aurora-2 (Aurora A)) [nM] | Ki (Aurora-1 (Aurora B)) [nM] | IC50 (Colo205 cells; [2]) [nM]
19 | Cc1cc(Nc2cc(N3CCCC(F)(F)C3)nc(Sc3ccc(NC(=O)CC(F)(F)F)cc3)n2)[nH]n1 [Compound I-26] | 25 to 125 | ≤ 10 | 10 to 50 | 50 to 200
20 | CCC(=O)Nc1ccc(Sc2nc(Nc3cc(C)n[nH]3)cc(N3CCC(C)(O)C3)n2)cc1 (centres unmarked) [Compound I-11] |  | ≤ 10 | 10 to 50 | 50 to 200
21 | CCC(=O)Nc1ccc(Sc2nc(Nc3cc(C)n[nH]3)cc(N3CCC(C#N)CC3)n2)cc1 [Compound I-16] |  | ≤ 10 | 10 to 50 | 50 to 200
22 | CCC(=O)Nc1ccc(Sc2nc(Nc3cc(C)n[nH]3)cc(N3CC[C@H](NC)C3)n2)cc1 [Compound I-22] |  | ≤ 10 | 10 to 50 | 50 to 200
23 | CCC(=O)Nc1ccc(Sc2nc(Nc3cc(C)n[nH]3)cc(N3CC[C@H](N(C)CC)C3)n2)cc1 [Compound I-50] |  | ≤ 10 |  | ≤ 50
24 | CCC(=O)Nc1ccc(Sc2nc(Nc3cc(C)n[nH]3)cc(N3CCC(N4CCCC4)C3)n2)cc1 (centres unmarked) [Compound I-48] |  | ≤ 10 |  | ≤ 50
25 | Cc1cnc(Nc2cc(N3CC[C@H](N(C)C)C3)nc(Sc3ccc(NC(=O)C4CC4)cc3)n2)s1 [Compound I-30] |  | ≤ 10 |  | 50 to 200
26 | CCC(=O)Nc1ccc(Sc2nc(Nc3cc(C)n[nH]3)cc(N3CCC(O)(C(C)(C)C)C3)n2)cc1 (centres unmarked) [Compound I-10] |  | ≤ 10 |  | 50 to 200
27 | CCC(=O)Nc1ccc(Sc2nc(Nc3cc(C)n[nH]3)cc(N3CCC(C(C)(C)C)CC3)n2)cc1 [Compound I-23] |  | ≤ 10 |  | 50 to 200
28 | CCC(=O)Nc1ccc(Sc2nc(Nc3cc(C)n[nH]3)cc(N3CCC(OC(C)(C)C)CC3)n2)cc1 [Compound I-85] |  | ≤ 10 | 10 to 50 | 
29 | Cc1cnc(Nc2cc(N3CC[C@H](OC(C)C)C3)nc(Sc3ccc(NC(=O)C4CC4)cc3)n2)s1 [Compound I-5] |  | ≤ 10 | 10 to 50 | 
30 | Cc1cnc(Nc2cc(N3CC[C@@H](O)C3)nc(Sc3ccc(NC(=O)C4CC4)cc3)n2)s1 [Compound I-6] |  | ≤ 10 | 10 to 50 | 
31 | Cc1cnc(Nc2cc(N3CCC[C@@H](N(C)C)C3)nc(Sc3ccc(NC(=O)C4CC4)cc3)n2)s1 [Compound I-13] |  | 10 to 50 |  | 50 to 200
32 | CCC(=O)Nc1ccc(Sc2nc(Nc3cc(C)n[nH]3)cc(N3CCC(C)(N4CCCC4)CC3)n2)cc1 [Compound I-34] |  | ≤ 10 |  | 50 to 200
33 | CCC(=O)Nc1ccc(Sc2nc(Nc3cc(C)n[nH]3)cc(N3CCC(N4CCCC4(C)C)C3)n2)cc1 (centres unmarked) [Compound I-3] |  | ≤ 10 |  | 
34 | CCC(=O)Nc1ccc(Sc2nc(Nc3cc(C)n[nH]3)cc(N3CCC(O)(CC(C)(C)C)C3)n2)cc1 (centres unmarked) [Compound I-2] |  | ≤ 10 |  | 
35 | Cc1cnc(Nc2cc(N3CC[C@@H](N4CCCC4)C3)nc(Sc3ccc(NC(=O)C4CC4)cc3)n2)s1 [Compound I-37] |  | ≤ 10 |  | ≤ 50
